The values below come from patent publication US20250177410A1, “COMBINATION THERAPIES COMPRISING A SOS1 INHIBITOR AND AN EGFR INHIBITOR” (Mirati Therapeutics, Inc., priority 2022, published 2025).

The subject of assay [1] is NCI-H1975 cells harboring EGFR L585R/T790M mutations. The procedure:
(§1) Immunocompromised nude/nude mice are inoculated in the right hind flank with NCI-H1975 cells harboring EGFR L585R/T790M mutations. When tumor volumes reach between 200-400 mm^3 in size, the mice are divided into four groups of 4-12 mice each. The first group is administered vehicle only. […] The fourth and fifth groups are administered the single agent dose of the EGFR inhibitor in combination with the single agent dose of the SOS1 inhibitor. The treatment period was 21 days. Tumor volumes are measured using a caliper every two-three days and tumor volumes are calculated by the formula: 0.5×(Length×Width)2.
30 nude/nude mice were inoculated in the right hind limb with 5×10^6 NCI-H1975 cells.

In assay [2] the test system is PC9 cells harboring EGFR exon 19del (E746_A750del) mutation. As for the experimental part: as §1, with “NOD/SCID” for “nude/nude”, “PC9” for “NCI-H1975”, “exon 19del (E746_A750del) mutation.” for “L585R/T790M mutations.”, “100-150” for “200-400”, “27” for “21”, “0.5×(Length×Width) 2.” for “0.5×(Length×Width)2.”
30 NOD/SCID mice were inoculated in the right hind limb with 5×10^6 PC9 cells.

Where [3] appears, read: Study Day 3, MRTX0902 50 mg/kg p.o.
The mark [4] stands for this setting: Study Day 10, MRTX0902 50 mg/kg p.o.
Where [5] appears, read: Study Day 14, MRTX0902 50 mg/kg p.o.
Setting [6] is: Study Day 21, MRTX0902 50 mg/kg p.o.
Setting [7] is: Study Day 3, Osimertinib 2.5 mg/kg QD p.o.
[8] abbreviates: Study Day 10, Osimertinib 5 mg/kg QD p.o.
Where [9] appears, read: Study Day 21, Osimertinib 5 mg/kg QD p.o.

Read-outs that look alike come from different tables or passages of the source.

With `Cc1c(C#N)cccc1[C@@H](C)Nc1nnc(C)c2cnc(N3CCOCC3)cc12` [MRTX0902, (R)-2-methyl-3-(1-((4-methyl-7-morpholinopyrido[3,4-d]pyridazin-1-yl)amino)ethyl)benzonitrile], the tumor growth inhibition in assay [1] (MRTX0902 50 mg/kg BID single agent) worked out at 26%; in assay [2] (MRTX0902 50 mg/kg BID), 54%. Besides, the “Average Tumor Volume” value in assay [1] (Study Day 0, MRTX0902 50 mg/kg p.o.) stood at 285 mm^3; in assay [1] (setting [3]) it was 504 mm^3; in assay [1] (Study Day 7, MRTX0902 50 mg/kg p.o.), 808 mm^3; in assay [1] (setting [4]), 1028 mm^3; in assay [1] (setting [5]), 1387 mm^3; in assay [1] (Study Day 17, MRTX0902 50 mg/kg p.o.) it was 1527 mm^3. The “Average Tumor Volume” value in assay [1] (setting [6]) is given as 1372 mm^3; in assay [2] (setting [3]) it was 197 mm^3; in assay [2] (Study Day 6, MRTX0902 50 mg/kg p.o.) it was 247 mm^3; in assay [2] (setting [4]), 330 mm^3; in assay [2] (setting [5]), 442 mm^3; in assay [2] (Study Day 18, MRTX0902 50 mg/kg p.o.), 578 mm^3. For the same compound, the “Average Tumor Volume” value in assay [2] (setting [6]) came out at 661 mm^3; in assay [2] (Study Day 24, MRTX0902 50 mg/kg p.o.), 755 mm^3; in assay [2] (Study Day 27, MRTX0902 50 mg/kg p.o.) it was 798 mm^3; in assay [2] (Study Day −1, MRTX0902 50 mg/kg p.o.), 112 mm^3.
With `C=CC(=O)Nc1cc(Nc2nccc(-c3cn(C)c4ccccc34)n2)c(OC)cc1N(C)CCN(C)C` [Osimertinib, osimertinib], the “Average Tumor Volume” value was 286 mm^3 in assay [1] (Study Day 0, Osimertinib 2.5 mg/kg QD p.o.); 286 mm^3 in assay [1] (Study Day 0, Osimertinib 5 mg/kg QD p.o.); 288 mm^3 in assay [1] (setting [7]); 173 mm^3 in assay [1] (Study Day 3, Osimertinib 5 mg/kg QD p.o.); 325 mm^3 in assay [1] (Study Day 7, Osimertinib 2.5 mg/kg QD p.o.); 70 mm^3 in assay [1] (setting [8]). The “Average Tumor Volume” value worked out at 468 mm^3 in assay [1] (Study Day 17, Osimertinib 2.5 mg/kg QD p.o.); 83 mm^3 in assay [1] (Study Day 17, Osimertinib 5 mg/kg QD p.o.); 135 mm^3 in assay [1] (setting [9]); 124 mm^3 in assay [2] (setting [7]); 95 mm^3 in assay [2] (Study Day 6, Osimertinib 5 mg/kg QD p.o.); 69 mm^3 in assay [2] (setting [8]). The “Average Tumor Volume” value amounted to 65 mm^3 in assay [2] (Study Day 14, Osimertinib 5 mg/kg QD p.o.); 150 mm^3 in assay [2] (Study Day 18, Osimertinib 2.5 mg/kg QD p.o.); 60 mm^3 in assay [2] (Study Day 18, Osimertinib 5 mg/kg QD p.o.); 62 mm^3 in assay [2] (setting [9]); 209 mm^3 in assay [2] (Study Day 24, Osimertinib 2.5 mg/kg QD p.o.); 214 mm^3 in assay [2] (Study Day 27, Osimertinib 2.5 mg/kg QD p.o.). Moreover, the “Average Tumor Volume” value in assay [2] (Study Day −1, Osimertinib 2.5 mg/kg QD p.o.) was 108 mm^3. Moreover, the tumor growth turned out to be 89% in assay [1] (mouse, in vivo) and 92.8% in assay [2] (mouse, in vivo). Besides, the tumor regression is −71% in assay [1] (osimertinib 5 mg/kg single agent, day 17) and −32.5% in assay [2] (osimertinib 5 mg/kg single agent, day 27).
